Source: patent US4918099A, “Drug, preparation and use thereof” (priority 1985, dated 1990)
Where two headings read alike, the source gives them in different places.

Columns and labels:
[1] = system: prostacyclin production; assay: Prostacyclin production (6-keto PGF alpha); type: in vivo, rats
Procedure: (§1) If an inhibiting action on MDA is detectable but no significant influence on the prostacyclin production can be detected, a selective inhibiting action on thromboxane A2 may be inferred.
(§2) Rats were divided into four test groups, viz.
(§3) Group B: Normal rats (8 laboratory animals) to which an aqueous brazilin solution (comprising 110 mg of brazilin per kg body weight) was daily administered from the 20th to the 30th day
(§4) Group D: Diabetic rats (10 laboratory animals); for inducing diabetes, a dose of 70 mg of streptozotocin per kg body weight in 0.1M citrate buffer solution (pH 4.0) was administered intraperitoneally to normal rats on the 1st test day. From the 20th to the 30th day of the test aqueous brazilin solution (comprising 110 mg of brazilin per kg body weight) was daily administered orally to these diabetic rats. (Instead of an aqueous brazilin solution, the same amount of distilled water was administered to the laboratory animals of the groups A and C from the 20th to the 30th day.)
(§5) After expiration of the 30th test day, the test animals were sacrificed, and the MDA production was determined by means of thrombin stimulated platelets.

[2] = Planta Med. 31, 214-220 (1977); cited from earlier work
[3] = system: platelet aggregation in diabetic human plasma; assay: Platelet aggregation in diabetic human plasma induced by ADP; type: cell-based
Procedure: The platelet aggregation was determined by a tubimetric method in a dual-channel aggregometer, assuming that a platelet-poor plasma represented 100% aggregation and that a platelet-rich plasma represented 0% aggregation. Each aggregometer tube was charged with 40 μl of platelet-rich plasma and 50 μl of test sample solution. The mixture was incubated at 37° C. for 2 min., whereupon 50 μl of ADP solution were added. Percent inhibition of the platelet aggregation caused by the test sample solution was calculated as follows: [formula]

[4] = system: β-galactosidase; assay: Lysosomal enzyme activity in kidney tissue; type: in vivo, mice
Source text: (§6) Possibly, the lysosomal glycosidases active in the kidneys are involved in the micro-angiopathy accompanying diabetes mellitus. Therefore, the lysosomal glycosidase activities upon administration of brazilin and full extract were examined.
(§7) A number of mice was divided into three groups. Group I, which was used as control group, remained untreated. To the rest of the mice diabetes was induced by administering alloxan. Part of these diabetic mice remained untreated (diabetic control group II); to the rest of the diabetic mice a dose of 100 mg of brazilin per kg body weight was administered daily. After a test period of 10 and 30 days, respectively, kidney tissue was taken from the laboratory animals and the enzyme fraction was determined. In particular, incubation was carried out for 30 min at 37° C., the reaction was stopped by adding 0.05M glycine-NaOH buffer solution (pH 10.4), centrifugation was carried out at 3000 U/min for 10 min, and the amount of p-nitrophenol formed per min and per mg of protein was determined spectrophotometrically at 410 nm at the supernatant.

[5] = system: α-mannosidase; assay: Lysosomal enzyme activity in kidney tissue; type: in vivo, mice
Source text: as §6, §7

[6] = Blood sugar lowering effect of brazilin in streptozotocin diabetic SD rats; type: in vivo
Procedure: By intraperitoneally administering streptozotocin (70 mg per 1 kg body weight in 0.1M of citrate buffer solution, pH 4.0) diabetes was induced in SD rats. 20 days after the injection of streptozotocin the blood sugar values of the laboratory animals were measured. The hyperglycemic rats were divided into two groups, viz. into a control group and a test group. For 10 days a dose of 110 mg of brazilin per kg body weight was daily administered to the animals of the test group. Then, the blood sugar values were measured again.

[7] = Body weight and blood sugar of the rats of the MDA test; type: in vivo; conditions: on 30th day
Procedure: as §2, §3, §4

[8] = system: thrombin stimulated platelets; assay: Malon dialdehyde (MDA) production by thrombin stimulated platelets; type: in vivo, rats
Source text: Thromboxane A2 is the potent substance inducing platelet aggregation. MDA is formed through the same enzyme system as thromboxane A2. Inhibition of MDA production may be due to the following factors:
as §1, §2, §3, §4, §5

[9] = system: fat pads isolated from rats; assay: Lipogenesis: esterified lipids and free fatty acids in fat pads isolated from rats; type: in vivo
Procedure: With (a) untreated (normal) control animals (rats), (b) diabetic rats, and (c) diabetic brazilin treated rats glucose oxidation and lipogenesis were investigated (by means of the esterified lipids and the free fatty acids). Diabetes was induced by intravenous administration of streptozotocin (40 mg/kg live weight). Brazilin was administered intraperitoneally for 15 days (100 mg/kg body weight). Within the same period the same volume of saline solution was administered to the untreated animals of the control group.
The effects of additional brazilin administration on lipogenesis were determined by means of the esterified lipids and free fatty acids formed from 1-^14 C-glucose. The measurements were carried out according to established methods.

[10] = system: erythropoesis; assay: Effect on erythropoesis; design: species or system rats; conditions: rat, in vivo
Procedure: For administering brazilin, the laboratory animals were daily injected intraperitoneally with a dose of 100 mg of brazilin per kg body weight for 10 days. For inducing diabetes, a dose of 175 mg of alloxan per kg body weight was administered intraperitoneally.

## Oc1ccc2c(c1)OC[C@]1(O)Cc3cc(O)c(O)cc3[C@H]21 [brazilin]
[1]; diabetic rats + brazilin, diabetic control 0.19
  6-Keto PG F α: 0.18 ± 0.03 ng/mg
[1]; normal rats + brazilin, normal control 0.18
  6-Keto PG F α: 0.17 ± 0.02 ng/mg
[1]; rats
  influence on the prostacyclin production: no influence on the prostacyclin production could be observed
[2]
  anti-inflammatory effect: anti-inflammatory effect
[3]; 10^-3 M, control 78.7
  T/min, Aggregation (first value): 8.75%
  Tmax, Aggregation (first value): 46.3%
[3]; 10^-4 M, control 78.7
  Tmax, Aggregation (first value): 70.0%
[3]; Homo sapiens, Platelet, 10^-3 M, control 100, read-out: Tmax, Aggregation relative to control (second value)
  activity at 1000 µM: 58.8%
[3]; Homo sapiens, Platelet, 10^-3 M, read-out: T/min, Inhibition
  inhibition at 1000 µM: 88.9%
[3]; Homo sapiens, Platelet, 10^-3 M, read-out: Tmax, Inhibition
  inhibition at 1000 µM: 41.2%
[3]; Homo sapiens, Platelet, 10^-4 M, control 100, read-out: Tmax, Aggregation relative to control (second value)
  activity at 100 µM: 88.9%
[3]; Homo sapiens, Platelet, 10^-4 M, read-out: Tmax, Inhibition
  inhibition at 100 µM: 11.1%
[3]; conclusion on Tables 12 and 13
  inhibition of the platelet aggregation: considerable inhibition of the platelet aggregation
[4]; after 10 days, p < 0.05 vs. Group II (14.74), Group I 11.53
  β-galactosidase activity: 12.33 ± 1.95
[4]; after 30 days, p < 0.001 vs. Group II (7.39), Group I 8.90
  β-galactosidase activity: 10.28 ± 0.55
[5]; after 10 days, p < 0.001 vs. Group II (8.60), Group I 8.72
  α-mannosidase activity: 12.49 ± 1.34
[5]; after 30 days, p < 0.001 vs. Group II (5.69), Group I 6.57
  α-mannosidase activity: 5.99 ± 0.54
[6]; diabetic rats, 30 days after onset of diabetes, 110 mg/kg daily 10 days, before treatment (20 days) 266 ± 16.7, diabetic control 337 ± 45.6
  Blood sugar: 165 ± 42.7 mg/100 ml
[6]; normal rats, brazilin treated, 30 days, normal control 79 ± 22.2
  Blood sugar: 77 ± 20.3 mg/100 ml
[6]; streptozotocin diabetic rats, 110 mg/kg daily
  lowering of the blood sugar values: significant lowering of the blood sugar values
[7]; Group B (normal + brazilin), normal control 79
  Blood sugar: 77 ± 20.3 mg/100 ml
[7]; Group B (normal + brazilin), normal control 222
  Body weight: 226 ± 24.4 g
[7]; Group D (diabetic + brazilin), 266 on 20th day, diabetic control 337
  Blood sugar: 165 ± 42.7 mg/100 ml
[7]; Group D (diabetic + brazilin), diabetic control 185
  Body weight: 206 ± 9.61 g
[8]; Group B, thrombin 0,2 I. un., normal control 4.16
  MDA: 0.58 ± 0.30 nmol/10 platelets
[8]; Group B, thrombin 1,0 I. un., normal control 2.46
  MDA: 1.02 ± 0.48 nmol/10 platelets
[8]; Group D, thrombin 0,2 I. un., diabetic control 2.86
  MDA: 0.76 ± 0.21 nmol/10 platelets
[8]; Group D, thrombin 1,0 I. un., diabetic control 3.38
  MDA: 1.10 ± 0.31 nmol/10 platelets
[8]; normal rats + brazilin 110 mg/kg daily (Group B), thrombin 5,0 I. un., normal control 5.16
  MDA: 2.20 ± 0.58 nmol/10 platelets
[8]; rats, 110 mg/kg daily
  inhibition of MDA production: inhibiting effect on MDA production
[9]; basal and insulin stimulated
  effect on the production of free fatty acids: In none of the two cases additional administration of brazilin has any significant effect
[9]; diabetic rats + brazilin
  restoration of initial production of esterified lipids, basal: 24.7%
[9]; diabetic rats + brazilin, insulin 25 ng/ml
  restoration of initial production of esterified lipids, insulin stimulated: 19.8%
[9]; diabetic rats + brazilin, n=6, not significant vs diabetic control, diabetic 2.60, normal 3.18
  Glucose→FFA (free fatty acids), basal: 1.83 ± 0.43 nmol/100 mg tissue/120 min
[9]; diabetic rats + brazilin, n=10, P < 0.01 vs. diabetic control, diabetic 78.8, normal 220.8
  Glucose→E.L. (esterified lipids), basal: 113.9 ± 9.5 nmol/100 mg tissue/120 min
[9]; insulin 25 ng/ml, n=6, not significant vs diabetic control, diabetic 3.73, normal 8.42
  Glucose→FFA (free fatty acids), insulin stimulated: 3.39 ± 0.76 nmol/100 mg tissue/120 min
[9]; insulin 25 ng/ml, n=9, P < 0.1 vs diabetic control, diabetic 276.5, normal 528.0
  Glucose→E.L. (esterified lipids), insulin stimulated: 326.2 ± 18.4 nmol/100 mg tissue/120 min
[10]
  effect on erythropoesis: no effect on erythropoesis
